The values below are quoted from earlier work in patent US12233205B2, “Thermal modulation of an inhalable medicament” (priority 2014, dated 2025).

The conditions of one data set: administered IV.
Turning to `Nc1nc(NC2CC2)c2ncn([C@H]3C=C[C@@H](CO)C3)c2n1` [Abacavir], the bioavailability is recorded as 61-89%. For `Cc1nnc(SCC2=C(C(=O)O)N3C(=O)[C@@H](NC(=O)Cn4cnnn4)[C@H]3SC2)s1` [Cefazolin], the bioavailability entry is listed as “around 78%”. Turning to `C[C@@H](O)[C@H]1C(=O)N2C(C(=O)O)=C(S[C@@H]3CN[C@H](C(=O)Nc4cccc(C(=O)O)c4)C3)[C@H](C)[C@H]12` [Ertapenem], the bioavailability entry was “around 90%”.

As for Gentamicin, the bioavailability result is given as “around 100%”.

Still in this data set, the particulars now being: administered PO.
In the case of `Nc1nc(NC2CC2)c2ncn([C@H]3C=C[C@@H](CO)C3)c2n1` [Abacavir], the bioavailability result is “around 83%”. Regarding `Nc1nc2c(ncn2COCCO)c(=O)[nH]1` [Acyclovir], the bioavailability is given as 10-20%. For `NC12CC3CC(CC(C3)C1)C2` [Amantadine], the bioavailability entry is listed as “around 86%”. Turning to `CC(=O)Oc1ccccc1C(=O)O` [Aspirin], the bioavailability is reported as 61-80%.

For the compound `CC[C@H]1OC(=O)[C@H](C)[C@@H](O[C@H]2C[C@@](C)(OC)[C@@H](O)[C@H](C)O2)[C@H](C)[C@@H](O[C@@H]2O[C@H](C)C[C@H](N(C)C)[C@H]2O)[C@](C)(O)C[C@@H](C)CN(C)[C@H](C)[C@@H](O)[C@]1(C)O` [Azithromycin], the bioavailability entry is listed as “around 38%”.

Take `[H]/N=C(\N/C(=N/[H])NCCCCCCNC(=N)NC(=N)Nc1ccc(Cl)cc1)Nc1ccc(Cl)cc1` [Chlorhexidine]: the bioavailability entry is listed as “around 4%”. Turning to `CC[C@H]1OC(=O)[C@H](C)[C@@H](O[C@H]2C[C@@](C)(OC)[C@@H](O)[C@H](C)O2)[C@H](C)[C@@H](O[C@@H]2O[C@H](C)C[C@H](N(C)C)[C@H]2O)[C@](C)(OC)C[C@@H](C)C(=O)[C@H](C)[C@@H](O)[C@]1(C)O` [Clarithromycin], the bioavailability entry is listed as “around 55%”. Regarding `Nc1nc(O)c2ncn(COC(CO)CO)c2n1` [Ganciclovir], the bioavailability entry was “around 5%”. In the case of `CC(C)Cc1ccc(C(C)C(=O)O)cc1` (stereo not shown) [Ibuprofen], the bioavailability is given as 58-98%.

Regarding `NNC(=O)c1ccncc1` [Isoniazid], the bioavailability entry is “around 90%”.

For `C[C@H]1COc2c(N3CCN(C)CC3)c(F)cc3c(=O)c(C(=O)O)cn1c23` [Levofloxacin], the bioavailability result is reported as “around 99%”. For the compound `CN(C)c1ccc(O)c2c1C[C@H]1C[C@H]3[C@H](N(C)C)C(O)=C(C(N)=O)C(=O)[C@@]3(O)C(O)=C1C2=O` [Minocycline], the bioavailability entry is “around 90%”.

As for `CCOc1ccc2ccccc2c1C(=O)N[C@@H]1C(=O)N2[C@@H]1SC(C)(C)[C@@H]2C(=O)O` [Nafcillin], the bioavailability entry was “around 50%”.

Consider `CN(C)C(=O)Oc1cccc([N+](C)(C)C)c1` [Neostigmine], for which the bioavailability is 1-2%. Take `Cc1ccnc2c1NC(=O)c1cccnc1N2C1CC1` [Nevirapine]: the bioavailability is reported as 80-94%. Turning to `CCOC(=O)C1=C[C@@H](OC(CC)CC)[C@H](NC(C)=O)[C@@H](N)C1` [Oseltamivir], the bioavailability entry is reported as “around 75%”. Take `CNC[C@H](O)c1cccc(O)c1` [Phenylephrine]: the bioavailability result is on record as “around 38%”. Take `Cc1nnc(C(=O)NC(C)(C)c2nc(C(=O)NCc3ccc(F)cc3)c(O)c(=O)n2C)o1` [Raltegravir]: the bioavailability is given as 20-43%.

On to `NC(=O)c1ncn([C@@H]2O[C@H](CO)[C@@H](O)[C@H]2O)n1` [Ribavirin], for which the bioavailability result is “around 64%”. In the case of `CO[C@H]1/C=C/O[C@@]2(C)Oc3c(C)c(O)c4c(O)c(c(/C=N/N5CCN(C)CC5)c(O)c4c3C2=O)NC(=O)/C(C)=C\C=C\[C@H](C)[C@H](O)[C@@H](C)[C@@H](O)[C@@H](C)[C@H](OC(C)=O)[C@@H]1C` [Rifampin], the bioavailability was 90-95%. As to `COc1cccc(C2(O)CCCCC2CN(C)C)c1` (stereo not shown) [Tramadol], the bioavailability is given as 75-95%. `CN[C@H](CC(C)C)C(=O)N[C@H]1C(=O)N[C@@H](CC(N)=O)C(=O)N[C@H]2C(=O)N[C@H]3C(=O)N[C@H](C(=O)N[C@H](C(=O)O)c4cc(O)cc(O)c4-c4cc3ccc4O)[C@H](O)c3ccc(c(Cl)c3)Oc3cc2cc(c3O[C@@H]2O[C@H](CO)[C@@H](O)[C@H](O)[C@H]2O[C@H]2C[C@](C)(N)[C@H](O)[C@H](C)O2)Oc2ccc(cc2Cl)[C@H]1O` [Vancomycin]: the bioavailability entry was “negligible”. Consider Gentamicin, for which the bioavailability result is “negligible”. Turning to Penicillin G, V, the bioavailability is 30-80%.

The same data set, now with this note: administered PR.
Take `CO[C@@]1(NC(=O)Cc2cccs2)C(=O)N2C(C(=O)O)=C(COC(N)=O)CS[C@@H]21` [Cefoxitin]: the bioavailability is on record as 7-17%.

The data set is the same for the next values; noted with them: administered as a nasal spray.
For `CN1CCCC(n2nc(Cc3ccc(Cl)cc3)c3ccccc3c2=O)CC1` (stereo not shown) [Azelastine], the bioavailability result is reported as “around 40%”.

On to `CNS(=O)(=O)Cc1ccc2[nH]cc(CCN(C)C)c2c1` [Sumatriptan], for which the bioavailability entry is “around 25%”.

Staying with this data set, now noted: administered as an inhalable.
Consider `NC[C@H]1O[C@H](O[C@H]2[C@H](O)[C@@H](O[C@H]3O[C@H](CO)[C@@H](O)[C@H](N)[C@H]3O)[C@H](N)C[C@@H]2N)[C@H](N)C[C@@H]1O` [Tobramycin], for which the bioavailability is 1-16.6%.

Staying with this data set, now noted: in vivo, im.
As for `CCOC(=O)C1(c2ccccc2)CCN(C)CC1` [Meperidine], the bioavailability entry is given as “around 57%”.

Staying with this data set, now noted: in vivo, inhaled or intranasal.
`C[C@@H]1C[C@H]2[C@@H]3CCC4=CC(=O)C=C[C@]4(C)[C@@]3(Cl)[C@@H](O)C[C@]2(C)[C@@]1(O)C(=O)CCl` [Mometasone]: the bioavailability entry was “around 1%”.

Staying with this data set, now noted: in vivo, po.
For the compound `CNCC[C@H](Oc1cccc2ccccc12)c1cccs1` [Duloxetine], the bioavailability is 30-80%.

`Cc1ncc2n1-c1ccc(Cl)cc1C(c1ccccc1F)=NC2` [Midazolam]: the bioavailability result is on record as “around 36%”.

The same data set, now with this note: route not stated.
Take `CC(=O)N[C@H]1[C@H]([C@H](O)[C@H](O)CO)OC(C(=O)O)=C[C@@H]1N=C(N)N` [Zanamivir]: the bioavailability was 4-17%.
